Read-outs that look alike come from different tables or passages of the source.
Test system: respiratory epithelial cells
[1] = HG-U95E, lot 1, Day 3, AI (head as in Table 18)
[2] = HG-U95E, lot 1, Day 7, AI (no head printed, inferred)
[3] = HG-U95E, lot 2, Day 3, AI (no head printed, inferred)

## IL-13: human IL-13 (Peprotech, Inc.) added to the medium at 50 ng/mL to stimulate respiratory epithelial cells
HG-U95A, lot 2, Day 7, AI
  CRYM (38285_at) expression change upon IL-13 stimulation: −3.5
  CSPG2 (38112_g_at) expression change upon IL-13 stimulation: −2.5
  DHCR24 (36658_at) expression change upon IL-13 stimulation: −4.3
  DSG3 (33693_at) expression change upon IL-13 stimulation: −2.2
  E48 (36284_at) expression change upon IL-13 stimulation: −5.6
  EPHX1 (38790_at) expression change upon IL-13 stimulation: −5.1
  FACL2 (40082_at) expression change upon IL-13 stimulation: −2
  FMO3 (40665_at) expression change upon IL-13 stimulation: −4.3
  GLUL (40522_at) expression change upon IL-13 stimulation: −4.4
  GPX3 (770_at) expression change upon IL-13 stimulation: −2.8
  GSTA4 (40508_at) expression change upon IL-13 stimulation: −5.4
  HGNC, keratinocyte transglutaminase gene (35947_at) expression change upon IL-13 stimulation: −3.2
  KIAA0878 (32215_1_at) expression change upon IL-13 stimulation: −2.7
  KIAA1055 (39400_at) expression change upon IL-13 stimulation: −3
  LCE (40943_at) expression change upon IL-13 stimulation: −3.7
  LGALS1 (33412_at) expression change upon IL-13 stimulation: −6.2
  SCYD1 (823_at) expression change upon IL-13 stimulation: −24.6
  SDC1 (38127_at) expression change upon IL-13 stimulation: −2.9
  TGFBI (1385_at) expression change upon IL-13 stimulation: −4.9
  TNFAIP2 (38631_at) expression change upon IL-13 stimulation: −3.7
HG-U95E, lot 1, Day 3, AI
  AA199856 (72960_s_at) expression change upon IL-13 stimulation: 4.3
  AI859144, KIAA1127 (77546_at) expression change upon IL-13 stimulation: 4.2
  BAL (69619_at) expression change upon IL-13 stimulation: 3.5
  EHF (8S090_at) expression change upon IL-13 stimulation: 2.3
  EPSTI1 (90421_at) expression change upon IL-13 stimulation: 7.2
  FLJ20989 (91420_at) expression change upon IL-13 stimulation: 14.8
  FLJ22833 (67329_at) expression change upon IL-13 stimulation: 3.1
  GCNT3 (77751_at) expression change upon IL-13 stimulation: 4.9
  MFHAS1 (87816_g_at) expression change upon IL-13 stimulation: 3
  RPL4 (80675_at) expression change upon IL-13 stimulation: 2.2
  SCYA26 (90189_at) expression change upon IL-13 stimulation: 26.3
[1]
  H70665 (67357_at) expression change upon IL-13 stimulation: 2.6
  SLC21A12 (87860_s_at) expression change upon IL-13 stimulation: 2.7
  TBLR1 (87125_at) expression change upon IL-13 stimulation: 2.8
HG-U95E, lot 1, Day 3, IMM
  AA199856 (72960_s_at) expression change upon IL-13 stimulation: 5.8
  AI859144, KIAA1127 (77546_at) expression change upon IL-13 stimulation: 6.1
  AW024819 (72867_at) expression change upon IL-13 stimulation: 4.2
  BAL (69619_at) expression change upon IL-13 stimulation: 3.1
  EPSTI1 (90421_at) expression change upon IL-13 stimulation: 9.9
  FLJ20989 (91420_at) expression change upon IL-13 stimulation: 13.5
  GCNT3 (77751_at) expression change upon IL-13 stimulation: 10.2
  RIG-1 (77749_at) expression change upon IL-13 stimulation: 3.9
  SCYA26 (90189_at) expression change upon IL-13 stimulation: 18.1
HG-U95E, lot 1, Day 3, IMM (head as in Table 18)
  EHF (85092_g_at) expression change upon IL-13 stimulation: 2.3
HG-U95E, lot 1, Day 7, AI
  AA199856 (72960_s_at) expression change upon IL-13 stimulation: 3.9
  AA806114 (80826_at) expression change upon IL-13 stimulation: 5.3
  AI803648 (89255_at) expression change upon IL-13 stimulation: 3.5
  AI859144, KIAA1127 (77546_at) expression change upon IL-13 stimulation: 2.6
  AI984061 (89834_at) expression change upon IL-13 stimulation: 2.7
  AW024819 (72867_at) expression change upon IL-13 stimulation: 2.6
  BCAT1 (72962_at) expression change upon IL-13 stimulation: 2.7
  CLDN1 (77660_at) expression change upon IL-13 stimulation: 2.6
  EHF (85092_g_at) expression change upon IL-13 stimulation: 2.1
  EPPK1 (86507_at) expression change upon IL-13 stimulation: 2.6
  FLJ20281 (83376_at) expression change upon IL-13 stimulation: 2.1
  FLJ20989 (91420_at) expression change upon IL-13 stimulation: 3.4
  FLJ21415 (89902_at) expression change upon IL-13 stimulation: 3.4
  FLJ22833 (67329_at) expression change upon IL-13 stimulation: 3.6
  GCNT3 (77751_at) expression change upon IL-13 stimulation: 2.5
  KIAA1685 (83541_at) expression change upon IL-13 stimulation: 2.6
  MASL1 (89651_at) expression change upon IL-13 stimulation: 4.3
  MFHAS1 (87816_g_at) expression change upon IL-13 stimulation: 3.4
  RIG-1 (77749_at) expression change upon IL-13 stimulation: 3.4
  SCYA26 (90189_at) expression change upon IL-13 stimulation: 30.4
  vipirin (84893_at) expression change upon IL-13 stimulation: 2.7
[2]
  NIFK (89320_at) expression change upon IL-13 stimulation: 2.9
  SLC1A5 (34759_at) expression change upon IL-13 stimulation: 2.5
  SLC17A5 (88617_at) expression change upon IL-13 stimulation: 2.7
  SLC21A12 (87860_s_at) expression change upon IL-13 stimulation: 2.7
  rab11-FIP1 (89338_at) expression change upon IL-13 stimulation: 4.4
HG-U95E, lot 1, Day 7, IMM
  AA199856 (72960_s_at) expression change upon IL-13 stimulation: 3.8
  AA806114 (80826_at) expression change upon IL-13 stimulation: 5.3
  AI803648 (89255_at) expression change upon IL-13 stimulation: 7
  BAL (69619_at) expression change upon IL-13 stimulation: 2.2
  BCAT1 (72962_at) expression change upon IL-13 stimulation: 3.4
  EPPK1 (86507_at) expression change upon IL-13 stimulation: 3.6
  EPSTI1 (90421_at) expression change upon IL-13 stimulation: 3.4
  FLJ22833 (67329_at) expression change upon IL-13 stimulation: 3.7
  GCNT3 (77751_at) expression change upon IL-13 stimulation: 3.5
  MFHAS1 (87816_g_at) expression change upon IL-13 stimulation: 3.1
  RIG-1 (77749_at) expression change upon IL-13 stimulation: 5.1
  SCYA26 (90189_at) expression change upon IL-13 stimulation: 35.1
  vipirin (84893_at) expression change upon IL-13 stimulation: 6.6
HG-U95E, lot 2, Day 3, AI
  AA199856 (72960_s_at) expression change upon IL-13 stimulation: 18.8
  AA779704 (68562_at) expression change upon IL-13 stimulation: 2.8
  AA806114 (80826_at) expression change upon IL-13 stimulation: 7.2
  AI859144, KIAA1127 (77546_at) expression change upon IL-13 stimulation: 5.5
  BAL (69619_at) expression change upon IL-13 stimulation: 3.1
  BCAT1 (72962_at) expression change upon IL-13 stimulation: 10.5
  EHF (8S090_at) expression change upon IL-13 stimulation: 3.3
  EHF (85092_g_at) expression change upon IL-13 stimulation: 3.3
  EPSTI1 (90421_at) expression change upon IL-13 stimulation: 9.4
  FLJ22833 (67329_at) expression change upon IL-13 stimulation: 6.1
  MASL1 (89651_at) expression change upon IL-13 stimulation: 3.2
  MFHAS1 (87816_g_at) expression change upon IL-13 stimulation: 3.5
  OAS2 (90662_at) expression change upon IL-13 stimulation: 4.1
  RIG-1 (77749_at) expression change upon IL-13 stimulation: 6.4
  RPL4 (80675_at) expression change upon IL-13 stimulation: 2.3
  SCYA26 (90189_at) expression change upon IL-13 stimulation: 16.7
  vipirin (84893_at) expression change upon IL-13 stimulation: 15.4
[3]
  H70665 (67357_at) expression change upon IL-13 stimulation: 2.1
  NIFK (89320_at) expression change upon IL-13 stimulation: 2.1
  TBLR1 (87125_at) expression change upon IL-13 stimulation: 4.4
HG-U95E, lot 2, Day 7
  NIFK (89320_at) expression change upon IL-13 stimulation: 3.4
  SLC1A5 (34759_at) expression change upon IL-13 stimulation: 2.9
  SLC17A5 (88617_at) expression change upon IL-13 stimulation: 2.3

From patent publication US20050208496A1, “Methods of testing for bronchial asthma or chronic obstructive pulmonary disease” (Genox Research, Inc., priority 2002, published 2005)
